Assay results published in paper PMC5159191 (Nature, 2016).

Test system: CCR2-T4L
Format: binding, human
Conditions: [3H]-INCB-3344 homologous displacement

Structure (SMILES): CCO[C@H]1CN(C2CCC(O)(c3ccc4c(c3)OCO4)CC2)C[C@@H]1NC(=O)CNC(=O)c1cccc(C(F)(F)F)c1 (stereo partly shown) [INCB-3344]
- improvement of affinity towards CCR2-T4L compared to WT CCR2: approximately 2 fold
